# Experimental data reported in ChEMBL document CHEMBL1255345, “Efficacies of ceftobiprole medocaril and comparators in a rabbit model of osteomyelitis due to methicillin-resistant Staphylococcus aureus” (Antimicrob Agents Chemother, 2008).
# Activity calls are given as the source filed them. The calls are words filed in the database; no cut-off is given here.
# Key:
# Staphylococcus aureus [1] = experiment: Antimicrobial activity against methicillin-resistant Staphylococcus aureus infected in New Zealand rabbit osteomyelitis model assessed as improvement in rate of bone reconstruction at 30 mg/kg, sc administered every 12 hrs for 4 weeks measured on week 2 postinfection radiographic analysis; format: functional, organism-based; design: dose 30 mg/kg
# Staphylococcus aureus [2] = experiment: Antimicrobial activity against methicillin-resistant Staphylococcus aureus infected in New Zealand rabbit osteomyelitis model assessed as improvement in extent of bone remodeling at 30 mg/kg, sc administered every 12 hrs for 4 weeks measured on week 2 postinfection radiographic analysis; format: functional, organism-based; design: dose 30 mg/kg
# Staphylococcus aureus [3] = experiment: Antimicrobial activity against methicillin-resistant Staphylococcus aureus infected in New Zealand rabbit osteomyelitis model assessed as improvement in rate of bone reconstruction at 30 mg/kg, sc administered every 12 hrs for 4 weeks measured on week 6 postinfection radiographic analysis; format: functional, organism-based; design: dose 30 mg/kg
# Staphylococcus aureus [4] = experiment: Antimicrobial activity against methicillin-resistant Staphylococcus aureus infected in New Zealand rabbit osteomyelitis model assessed as improvement in extent of bone remodeling at 30 mg/kg, sc administered every 12 hrs for 4 weeks measured on week 6 postinfection radiographic analysis; format: functional, organism-based; design: dose 30 mg/kg
# Staphylococcus aureus [5] = experiment: Antimicrobial activity against methicillin-resistant Staphylococcus aureus infected in New Zealand rabbit osteomyelitis model assessed as improvement in rate of bone reconstruction at 30 mg/kg, sc administered every 12 hrs for 4 weeks measured on week 8 postinfection radiographic analysis; format: functional, organism-based; design: dose 30 mg/kg
# Staphylococcus aureus [6] = experiment: Antimicrobial activity against Staphylococcus aureus 168-1 isolated from osteomyelitis patient by broth macrodilution method; format: functional
# Staphylococcus aureus [7] = experiment: (§1) Antimicrobial activity against methicillin-resistant Staphylococcus aureus infected in New Zealand rabbit osteomyelitis model assessed as bacterial count per gram of tibial matrix at 30 mg/kg, sc administered every 12 hrs for 4 weeks measured on week 8 postinfection (reference value: 1.04 +/- 2.63 CFU/g); format: functional; settings: route subcutaneous
# Staphylococcus aureus [8] = experiment: as §1, with “marrow” for “matrix”, “1.12” for “1.04”, “10^9” for “2.63”; format: functional; settings: route subcutaneous
# [9] = Ratio of AUC to MIC in methicillin-resistant Staphylococcus aureus infected New Zealand rabbit model osteomyelitis at 30 mg/kg, sc administered every 12 hrs for 4 weeks; format: functional; settings: route subcutaneous
# [10] = Cmax in New Zealand rabbit osteomyelitis model at 40 mg/kg, sc administered every 6 hrs for 4 days; format: ADME, organism-based, Oryctolagus cuniculus; design: dose 40 mg/kg, route subcutaneous; settings: in vivo
# [11] = AUC in New Zealand rabbit osteomyelitis model at 40 mg/kg, sc administered every 6 hrs for 4 days; format: ADME, organism-based, Oryctolagus cuniculus; design: dose 40 mg/kg, route subcutaneous; settings: in vivo
# Staphylococcus aureus [12] = experiment: Antimicrobial activity against methicillin-resistant Staphylococcus aureus infected in New Zealand rabbit osteomyelitis model assessed as improvement in extent of bone remodeling at 60 mg/kg, po administered every 8 hrs for 4 weeks measured on week 2 postinfection radiographic analysis; format: functional, organism-based; design: dose 60 mg/kg
# Staphylococcus aureus [13] = experiment: Antimicrobial activity against methicillin-resistant Staphylococcus aureus infected in New Zealand rabbit osteomyelitis model assessed as improvement in rate of bone reconstruction at 60 mg/kg, po administered every 8 hrs for 4 weeks measured on week 6 postinfection radiographic analysis; format: functional, organism-based; design: dose 60 mg/kg
# Staphylococcus aureus [14] = experiment: Antimicrobial activity against methicillin-resistant Staphylococcus aureus infected in New Zealand rabbit osteomyelitis model assessed as improvement in extent of bone remodeling at 60 mg/kg, po administered every 8 hrs for 4 weeks measured on week 6 postinfection radiographic analysis; format: functional, organism-based; design: dose 60 mg/kg
# Staphylococcus aureus [15] = experiment: Antimicrobial activity against methicillin-resistant Staphylococcus aureus infected in New Zealand rabbit osteomyelitis model assessed as improvement in rate of bone reconstruction at 60 mg/kg, po administered every 8 hrs for 4 weeks measured on week 8 postinfection radiographic analysis; format: functional, organism-based; design: dose 60 mg/kg
# Staphylococcus aureus [16] = experiment: Antimicrobial activity against methicillin-resistant Staphylococcus aureus infected in New Zealand rabbit osteomyelitis model assessed as improvement in extent of bone remodeling at 60 mg/kg, po administered every 8 hrs for 4 weeks measured on week 8 postinfection radiographic analysis; format: functional, organism-based; design: dose 60 mg/kg
# Staphylococcus aureus [17] = experiment: as §1, with “60” for “30”, “po” for “sc”, “8” for “12”; format: functional, organism-based; design: dose 60 mg/kg
# Staphylococcus aureus [18] = experiment: as §1, with “marrow” for “matrix”, “60” for “30”, “po” for “sc”, “8” for “12”; format: functional, organism-based; design: dose 60 mg/kg
# Oryctolagus cuniculus [19] = experiment: Cmin in New Zealand rabbit at 20 mg/kg, sc administered every 6 hrs for 4 days measured after 1 hr post first dose by RP-HPLC/MS/MS; format: ADME, organism-based; design: dose 20 mg/kg, route subcutaneous; settings: in vivo, 1 h
# [20] = AUC in methicillin-resistant Staphylococcus aureus-infected New Zealand rabbit osteomyelitis model at 60 mg/kg, po after 24 hrs; format: ADME, organism-based, Oryctolagus cuniculus; design: time < 24 hr, dose 60 mg/kg, route oral; settings: in vivo
# Oryctolagus cuniculus [21] = experiment: Toxicity in methicillin-resistant Staphylococcus aureus-infected New Zealand rabbit osteomyelitis model assessed as body weight at 60 mg/kg, po administered every 8 hrs for 4 weeks measured on week 2 postinfection (reference value: 2.43 +/- 0.15 kg); settings: in vivo
# Oryctolagus cuniculus [22] = experiment: Toxicity in methicillin-resistant Staphylococcus aureus-infected New Zealand rabbit osteomyelitis model assessed as body weight at 60 mg/kg, po administered every 8 hrs for 4 weeks measured on week 4 postinfection (reference value: 2.43 +/- 0.15 kg); settings: in vivo
# Oryctolagus cuniculus [23] = experiment: Toxicity in methicillin-resistant Staphylococcus aureus-infected New Zealand rabbit osteomyelitis model assessed as body weight at 60 mg/kg, po administered every 8 hrs for 4 weeks measured on week 6 postinfection (reference value: 2.43 +/- 0.15 kg); settings: in vivo
# Oryctolagus cuniculus [24] = experiment: Toxicity in methicillin-resistant Staphylococcus aureus-infected New Zealand rabbit osteomyelitis model assessed as body weight at 60 mg/kg, po administered every 8 hrs for 4 weeks measured on week 8 postinfection (reference value: 2.43 +/- 0.15 kg); settings: in vivo
structure (smiles),measurement,setting,value
CN[C@H](CC(C)C)C(=O)N[C@H]1C(=O)N[C@@H](CC(N)=O)C(=O)N[C@H]2C(=O)N[C@H]3C(=O)N[C@H](C(=O)N[C@H](C(=O)O)c4cc(O)cc(O)c4-c4cc3ccc4O)[C@H](O)c3ccc(c(Cl)c3)Oc3cc2cc(c3O[C@@H]2O[C@H](CO)[C@@H](O)[C@H](O)[C@H]2O[C@H]2C[C@](C)(N)[C@H](O)[C@H](C)O2)Oc2ccc(cc2Cl)[C@H]1O [VANCOMYCIN],Activity,Staphylococcus aureus [1],Active
same,Activity,Staphylococcus aureus [2],Active
same,Activity,Staphylococcus aureus [3],Active
same,Activity,Staphylococcus aureus [4],Active
same,Activity,Staphylococcus aureus [5],Active
same,MBC,Staphylococcus aureus [6],6.25 µg/mL
same,MIC,Staphylococcus aureus [6],0.78 µg/mL
same,CFU,Staphylococcus aureus [7],0.84 ×10⁷ /g
same,CFU,Staphylococcus aureus [8],0.64 ×10⁹ /g
same,RatioAUC/MIC,[9],148
same,Cmax,[10],6400 ng/mL
same,AUC,[11],58 µg·h/mL
CC(=O)NC[C@H]1CN(c2ccc(N3CCOCC3)c(F)c2)C(=O)O1 [LINEZOLID],Activity,Staphylococcus aureus [12],Active
same,Activity,Staphylococcus aureus [13],Active
same,Activity,Staphylococcus aureus [14],Active
same,Activity,Staphylococcus aureus [15],Active
same,Activity,Staphylococcus aureus [16],Active
same,Activity,Staphylococcus aureus [17],Active
same,Activity,Staphylococcus aureus [18],Active
same,MBC,Staphylococcus aureus [6],12.5 µg/mL
same,MIC,Staphylococcus aureus [6],1.56 µg/mL
same,CFU,Oryctolagus cuniculus [19],0.18 ×10⁷ /g
same,Cmax,[10],27200 ng/mL
same,AUC,[11],173 µg·h/mL
same,AUC at 24 h,[20],334 µg·h/mL
same,Activity,Oryctolagus cuniculus [21],2.35 kg
same,Activity,Oryctolagus cuniculus [22],2.44 kg
same,Activity,Oryctolagus cuniculus [23],2.36 kg
same,Activity,Oryctolagus cuniculus [24],2.42 kg
